Tested on: Fibroblasts
Experiment: Contraction of collagen lattice by MGO-stressed fibroblasts
Format: cell-based
Conditions: MGO contact 2 days, with or without extract at 0.5%; control without MGO = 100%; n=3
From the text: The contraction function of fibroblasts is important for ensuring a good elasticity to the skin. The application on fibroblasts of the glycating substance (MGO: methylglyoxal) allows to mimic in accelerate the loss of contractility of fibroblasts occurring during aging. Fibroblasts were brought into contact with the MGO for 2 days, in nontoxic quantity, with or without the extract according to the invention. After this contact, the cells were included in a collagen gel to form a dermis equivalent called lattice. Fibroblasts anchor themselves to the collagens and begin to contract the gel like they do in the skin. This contraction was followed after 16 h and measured using an ImageQuant LAS4000 imager by following the modification on the gel surface.

CC(=O)C=O [MGO, methylglyoxal]
Gel contraction at 16 h (%): 59.9%
